Measured values as given in patent US11358969B2, “Indole AHR inhibitors and uses thereof” (Ikena Oncology, Inc., priority 2017, dated 2022).
Where two headings read alike, the source gives them in different places.

What was measured:
[1] = target: T1, AHR (UniProt P35869); experiment: DRE-Luciferase Reporter Assay (Alternate Method) (Example 1B); format: cell-based, murine or human; settings: cell line and AHR activating ligand not specified
T1 construct: IC50
T1 sequence (P35869 1-848): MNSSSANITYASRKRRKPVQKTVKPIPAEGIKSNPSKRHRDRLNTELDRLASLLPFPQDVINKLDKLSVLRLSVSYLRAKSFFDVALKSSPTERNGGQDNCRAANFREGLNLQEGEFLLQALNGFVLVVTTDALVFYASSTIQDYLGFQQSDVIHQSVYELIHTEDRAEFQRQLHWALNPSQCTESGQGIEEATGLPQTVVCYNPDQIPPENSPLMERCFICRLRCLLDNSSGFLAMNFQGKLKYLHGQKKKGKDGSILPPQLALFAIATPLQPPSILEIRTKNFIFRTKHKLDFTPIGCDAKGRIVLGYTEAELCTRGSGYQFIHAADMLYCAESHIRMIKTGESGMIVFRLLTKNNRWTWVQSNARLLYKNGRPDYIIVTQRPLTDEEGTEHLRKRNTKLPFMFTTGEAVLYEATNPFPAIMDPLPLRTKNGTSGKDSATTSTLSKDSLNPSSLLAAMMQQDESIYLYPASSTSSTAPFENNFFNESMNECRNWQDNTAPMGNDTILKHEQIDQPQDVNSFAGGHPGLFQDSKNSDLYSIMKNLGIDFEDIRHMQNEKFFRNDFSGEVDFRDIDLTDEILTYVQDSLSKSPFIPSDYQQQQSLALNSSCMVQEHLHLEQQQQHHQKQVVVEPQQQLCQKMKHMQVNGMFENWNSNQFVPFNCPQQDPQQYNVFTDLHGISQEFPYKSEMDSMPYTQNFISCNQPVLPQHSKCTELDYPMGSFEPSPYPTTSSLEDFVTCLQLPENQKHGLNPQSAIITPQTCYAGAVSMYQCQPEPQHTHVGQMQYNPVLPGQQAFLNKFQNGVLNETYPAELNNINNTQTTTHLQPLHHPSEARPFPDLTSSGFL

[2] = target: T1, AHR; experiment: DRE-Luciferase Reporter Assay (Example 1A); format: cell-based, murine or human; settings: cell line and AHR activating ligand not specified
Protocol: AHR binds to Dioxin Responsive Elements (DRE) upstream of genes that it activates. One measure of AHR activity is activation of a reporter gene, such as luciferase, downstream of one or multiple DRE elements. Luciferase activity will reflect activation and inhibition of AHR in the cells expressing his reporter.
Murine Hepa1-6 or Hepa-1c1c7 or other murine cell line with a DRE-luciferase reporter either stably or transiently transfected were plated in media in plates (96-well, 384-well or other plates) and incubated overnight at 37° C. in a CO2 incubator. Likewise, human HepG2 or other human cell line with a DRE-luciferase reporter either stably or transiently transfected were plated in media in plates (96-well, 384-well or other plates) and incubated overnight at 37° C. in a CO2 incubator.
The next day, an AHR activating ligand, such as TCDD, kynurenine, ITE (2-(1H-indole-3-ylcarbonyl)-4-thiazolecarboxylic methyl ester), VAF347, BNF (beta-naphthoflavone), FICZ (6-formylindolo(3,2-b) carbazole or other AHR ligands, was added with or without AHR antagonist.
Cells were incubated for 4, 15 or 24 hours or another time point and then lysed for determination of luciferase activity as a read-out of the AHR activation or inhibition. Luciferase was measured with a commercial kit such as the Promega Luciferase kit or any kit or reagents that provide the luciferin substrate for measuring luciferase activity. The level of luciferase with only activating ligand added was the maximum signal while the luciferase with no ligand was the minimum signal. IC50 values were determined as the concentration which inhibits half of the luciferase activity.

[3] = tested on: Cyp1a1; experiment: In Vivo Mouse liver and spleen Cyp1a1 Modulation Assay (Example 1E); set-up: species or system C57BL/6 mice; settings: po, dose 30 mg/kg, with AHR agonist VAG539 30 mg/kg po, qPCR
Protocol: C57BL/6 mice, female, 6-8 weeks old, weighing approximately 18-20 g were purchased from Shanghai Lingchang Biological Technology Co., Ltd or other certified vendors and used in the studies. Animal husbandry, feeding and health conditions are according to animal welfare guidelines. VAG539 (30 mg/kg, po) was used as AHRagonist, and test compounds were formulated in suitable vehicles, typically 0.5% methylcellulose).
C57BL/6 mice (n=3 per group) were treated with AHR agonist alone or with AHR agonist and test compounds. Animals were sacrificed at 4 or 10 hours after treatment upon which their livers and spleens were collected and subsequently analyzed by qPCR. Normalized fold induction of cyp1a1 was determined by comparing mCYP1A1 and mGAPDH counts (ct) according to: normalized fold=2^−ΔΔCt. The percent inhibition was calculated according to: […]

[4] = Mouse Pharmacokinetic Study (Example 1C); format: in vivo; settings: mouse, plasma, CD-1 mice; for Vd: read-out: Vdss
Protocol: Formulations of compounds set forth in Table 4 were administered intravenously or orally via gavage to CD-1 mice. Typically, at 0.167, 0.5, 1, 2, 4, 6, 12, and 24 hours post-dose, blood was collected and processed to plasma by centrifugation and stored at −80° C. until analysis.
Internal standard was added to each sample prior to protein precipitation with acetonitrile. The precipitates were filtered through a Phree phospholipid removal filter plate and the samples were analyzed by LC/MS/MS. A standard curve was prepared in plasma from typically from 1.0 ng/mL to 3000 ng/mL and processed in the same manner as the samples. Sample analysis was typically performed on a suitable LC/MS/MS system fitted with an analytical UPLC column and compounds eluted from the analytical column with a gradient from 30-95% 0.1% formic acid (v/v) in ACN: 0.1% formic acid (v/v) in water. Mass spectrometric detection of test compound and the internal standard was performed by MRM in positive mode. The pharmacokinetics of each compound were analyzed by Phoenix WinNonlin software (Pharsight, St. Louis, Mo.) via non-compartmental analysis.

[5] = In Vitro Mouse liver S9 Metabolic Stability Assay (Example 1D); format: in vitro ADME; settings: CD-1 mouse liver S9, 1 μM compound, 1 mg/mL S9 protein, 37° C., NADPH regenerating system, UDPGA, PAPS
In short: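 Compound at 1 μM final (0.1% DMSO) incubated at 37° C with pooled CD-1 mouse liver S9 (1 mg/mL protein) plus NADPH-regenerating system, UDPGA and PAPS. Samples at 0 and 60 min quenched in cold acetonitrile with internal standard; LC-MS/MS analyte/IS peak-area ratios give % remaining at 60 min.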

[6] = 4 h, read-out: Cyp1a1 inhibition, Liver, 4 h
[7] = 4 h, read-out: Cyp1a1 inhibition, Spleen, 4 h

Row | SMILES | IC50 [1] [nM] | IC50 [2] [nM] | bioavailability ([4]; po, 30 mg/kg) [%] | AUC(0-inf) ([4]; iv, 3 mg/kg) [ng·h/mL] | AUC(0-t) ([4]; iv, 3 mg/kg) [ng·h/mL] | clearance ([4]; iv, 3 mg/kg) [mL/min/kg] | half-life ([4]; iv, 3 mg/kg) [h] | Vd ([4]; iv, 3 mg/kg) [L/kg] | AUC(0-inf) ([4]; po, 30 mg/kg) [ng·h/mL] | AUC(0-t) ([4]; po, 30 mg/kg) [ng·h/mL] | Cmax ([4]; po, 30 mg/kg) [ng/mL] | half-life ([4]; po, 30 mg/kg) [h] | Mouse S9 Stability: % Remaining After 60 Minutes [5] [%] | Tmax ([4]; po, 30 mg/kg) [h] | inhibition at 30 mg/kg [3, 6] [%] | inhibition at 30 mg/kg [3, 7] [%] | inhibition at 30 mg/kg ([3]; 10 h, read-out: Cyp1a1 inhibition, Liver, 10 h) [%]
1 | CC(C)n1cnc2c(NCCc3c[nH]c4cccnc34)nc(-c3cncc(F)c3)nc21 [I-7, 2-(5-Fluoro-3-pyridyl)-9-isopropyl-N-[2-(1H-pyrrolo[3,2-b]pyridin-3-yl)ethyl]purin-6-amine] | > 1500 | < 500 |  |  |  |  |  |  |  |  |  |  |  |  |  |  | 
2 | CC(=O)c1cnn2c(NCCc3c[nH]c4ccccc34)cc(-c3cncc(F)c3)nc12 [I-57, 1-[5-(5-Fluoro-3-pyridyl)-7-[2-(1H-indol-3-yl)ethylamino]pyrazolo[1,5-a]pyrimidin-3-yl]ethanone] | < 500 |  |  |  |  |  |  |  |  |  |  |  |  |  | 77 | 66 | 
3 | CC(C)c1cnn2c(N[C@@H]3CCc4[nH]c5ccccc5c4C3)cc(-c3cncc(F)c3)nc12 [I-75a, (3R)—N-[5-(5-fluoro-3-pyridyl)-3-isopropyl-pyrazolo[1,5-a]pyrimidin-7-yl]-2,3,4,9-tetrahydro-1H-carbazol-3-amine] | > 1500 |  | 51 | 2260 | 2670 | 14.4 | 13.8 | 13.7 |  |  | 969 | 9.8 | 65 | 2 | 55 |  | 
4 | Fc1cncc(-c2cc(NCCc3c[nH]c4ccccc34)n3nccc3n2)c1 [I-103, 5-(5-Fluoro-3-pyridyl)-N-[2-(1H-indol-3-yl)ethyl]pyrazolo[1,5-a]pyrimidin-7-amine] | < 500 |  | 6 | 1140 | 1140 | 43.9 | 0.62 | 1.4 | 671 | 649 | 713 | 2.15 | 7 | 0.2 | 94 |  | 0
5 | Cc1cnn2c(N[C@H]3Cc4ccc(O)cc4C3)cc(-c3cncc(F)c3)nc12 [I-219, (2S)-2-[[5-(5-fluoro-3-pyridyl)-3-methyl-pyrazolo[1,5-a]pyrimidin-7-yl]amino]indan-5-ol] | < 500 |  | 2 | 682 | 678 | 73.3 | 0.7 | 2.4 | 215 | 132 | 48.9 |  | 5 | 0.2 |  |  | 
6 | C[C@@H](O)c1cnn2c(NCCc3c[nH]c4ccccc34)cc(-c3cncc(F)c3)nc12 [I-222a, (1R)-1-[5-(5-Fluoro-3-pyridyl)-7-[2-(1H-indol-3-yl)ethylamino]pyrazolo[1,5-a]pyrimidin-3-yl]ethanol] | < 500 |  | 16 | 1330 | 1330 | 36.9 | 2.4 | 1.5 | 2240 | 2230 | 2870 | 1.7 | 1 | 0.2 |  |  | 
7 | C[C@H](O)c1cnn2c(NCCc3c[nH]c4ccccc34)cc(-c3cncc(F)c3)nc12 [I-222b, (1S)-1-[5-(5-Fluoro-3-pyridyl)-7-[2-(1H-indol-3-yl)ethylamino]pyrazolo[1,5-a]pyrimidin-3-yl]ethanol] | < 500 |  | 51 | 567 | 564 | 88.1 | 1.8 | 2 | 2870 | 2860 | 2170 | 3.3 | 0 | 0.2 |  |  | 

Now from value to compound, other results behind:

Row | IC50 [1] [nM] | IC50 [2] [nM] | bioavailability ([4]; po, 30 mg/kg) [%] | AUC(0-inf) ([4]; iv, 3 mg/kg) [ng·h/mL] | AUC(0-t) ([4]; iv, 3 mg/kg) [ng·h/mL] | clearance ([4]; iv, 3 mg/kg) [mL/min/kg] | half-life ([4]; iv, 3 mg/kg) [h] | Vd ([4]; iv, 3 mg/kg) [L/kg] | AUC(0-inf) ([4]; po, 30 mg/kg) [ng·h/mL] | AUC(0-t) ([4]; po, 30 mg/kg) [ng·h/mL] | Cmax ([4]; po, 30 mg/kg) [ng/mL] | half-life ([4]; po, 30 mg/kg) [h] | Mouse S9 Stability: % Remaining After 60 Minutes [5] [%] | Tmax ([4]; po, 30 mg/kg) [h] | SMILES | inhibition at 30 mg/kg [3, 6] [%] | inhibition at 30 mg/kg [3, 7] [%] | inhibition at 30 mg/kg ([3]; 10 h, read-out: Cyp1a1 inhibition, Liver, 10 h) [%]
8 | < 500 | 1000 to 1500 |  |  |  |  |  |  |  |  |  |  |  |  | CC(C)c1n[nH]c2c(NCCc3c[nH]c4ccccc34)nc(-c3cncc(F)c3)nc12 [I-1, 5-(5-Fluoro-3-pyridyl)-N-[2-(1H-indol-3-yl)ethyl]-3-isopropyl-1H-pyrazolo[4,3-d]pyrimidin-7-amine] |  |  | 
9 | < 500 | 1000 to 1500 |  |  |  |  |  |  |  |  |  |  |  |  | CC(C)c1csc2c(NCCc3c[nH]c4ccccc34)nc(-c3cncc(F)c3)nc12 [I-3, N-(2-(1H-indol-3-yl)ethyl)-2-(5-fluoropyridin-3-yl)-7-isopropylthieno[3,2-d]pyrimidin-4-amine] |  |  | 
10 | < 500 | > 1500 |  |  |  |  |  |  |  |  |  |  |  |  | Fc1cncc(-c2nc(NCCc3c[nH]c4ccccc34)c3ccsc3n2)c1 [I-5, N-(2-(1H-indol-3-yl)ethyl)-2-(5-fluoropyridin-3-yl)thieno[2,3-d]pyrimidin-4-amine] |  |  | 
11 | < 500 |  | 17 | 931 | 908 | 53.7 | 1.31 | 3.5 | 1610 | 1600 | 799 | 3.35 | 30 |  | Fc1cncc(-c2cc(NCCc3c[nH]c4ccccc34)n3ncc(Br)c3n2)c1 [I-39, 3-Bromo-5-(5-fluoro-3-pyridyl)-N-[2-(1H-indol-3-yl)ethyl]pyrazolo[1,5-a]pyrimidin-7-amine] | 90 | 69 | 
12 | < 500 |  |  |  |  |  |  |  |  |  |  |  |  |  | CC(C)c1cnn2c(NCCc3c[nH]c4ccccc34)cc(-c3cccnc3)nc12 [I-46, N-[2-(1H-Indol-3-yl)ethyl]-3-isopropyl-5-(3-pyridyl)pyrazolo[1,5-a]pyrimidin-7-amine] | 96 | 94 | 
